Assays:
CRF1 receptor = settings: earlier CRF1 ligand; cited from earlier work
CRF1 vs. CRF2 receptors = settings: stated in method, no reference given; cited from earlier work
[125I]ovine-CRF = target: T1, [125I]ovine-CRF (Ovis aries, UniProt P01142, 125I-labelled CRF); assay: radioligand binding
T1 chain: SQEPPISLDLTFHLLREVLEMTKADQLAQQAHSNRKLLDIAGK

In the case of `CCC(COC)n1nnc2c(Nc3ccc(OC)cc3C)nc(C)cc21` (racemic) [[^3H]SN003, (+/−)-N-[2-methyl-4-methoxyphenyl]-1(1-(methoxymethyl)propyl)-6-methyl-1H-1,2,3-triazolo[4,5-c]pyridin-4-amine], the “ratio of CRF1 receptor-specific to non-specific binding” value (CRF1 receptor) is listed as “about 1”.

For ovine-CRF, the “selective for CRF1 vs. CRF2” value (CRF1 vs. CRF2 receptors) is listed as > 100 fold.

B1: CRF1 receptor (protein)
chain: SLQDQRCENLSLTSNVSGLQCNASVDLIGTCWPRSPAGQLVVRPCPAFFYGVRYNTTNNGYRECLANGSWAARVNYSECQEILNEEKKSKVHYHVAVIINYLGHCISLVALLVAFVLFLRLRSIRCLRNIIHWNLISAFILRNATWFVVQLTVSPEVHQSNVAWCRLVTAAYNYFHVTNFFWMFGEGCYLHTAIVLTYSTDRLRKWMFVCIGWGVPFPIIVAWAIGKLHYDNEKCWFGKRPGVYTDYIYQGPMILVLLINFIFLFNIVRILMTKLRASTTSETIQYRKAVKATLVLLPLLGITYMLFFVNPGEDEVSRVVFIYFNSFLESFQGFFVSVFYCFLNSEVRSAIRKRWRRWQDKHSIRARVARAMSIPTSPTRVSFHSIKQSTAV
Molecule B1 has a Kd ([125I]ovine-CRF) of 0.45 nM.

Reference: PMC4072041 (Nuclear medicine and biology, 2014)
